“And” between values parts separate entries of the source, which are not always exact repeats. Equal values may be shown once.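 96-well plates; 48 h exposure; 5 concentrations. Endpoints by linear interpolation between flanking doses. Not reached: highest tested concentration assigned. GI50 = concentration required for 50% inhibition of growth. TGI is the concentration that stops growth completely.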
How the values were obtained:
Assay in all cases: NCI tumour cell line growth inhibition, 48 h
SK-OV-3 ovarian = test system: SK-OV-3 ovarian
SK-MEL-5 melanoma = test system: SK-MEL-5 melanoma
OVCAR-5 ovarian = test system: OVCAR-5 ovarian
A549 NSCLC = test system: A549 NSCLC
MOLT-4 leukemia = test system: MOLT-4 leukemia
KM12 colon = test system: KM12 colon
RPMI-8226 leukemia = test system: RPMI-8226 leukemia
786-0 renal = test system: 786-0 renal
EKVX NSCLC = test system: EKVX NSCLC

Row | SMILES | GI50 (SK-OV-3 ovarian) [µM] | TGI (SK-OV-3 ovarian) [µM] | GI50 (SK-MEL-5 melanoma) | TGI (SK-MEL-5 melanoma) | GI50 (OVCAR-5 ovarian) [µM] | TGI (OVCAR-5 ovarian) [µM] | GI50 (A549 NSCLC) [µM] | TGI (A549 NSCLC) [µM] | GI50 (MOLT-4 leukemia) | TGI (MOLT-4 leukemia) [µM] | GI50 (KM12 colon) | TGI (KM12 colon) [µM] | GI50 (RPMI-8226 leukemia) | TGI (RPMI-8226 leukemia) | GI50 (786-0 renal) [µM] | TGI (786-0 renal) | GI50 (EKVX NSCLC) [µM] | TGI (EKVX NSCLC) [µM]
1 | N/C(=N\O)c1ncc(-c2ccc(C(F)(F)F)cc2)c(NC2CCCCCC2)n1 | 7.05 | 20.8 | 4.66 µM and 3.44 µM | 15.5 µM | 4.51 | 19.3 | 2.34 | 11.1 | 5.44 µM and 1.9 µM | 5.78 | 6.51 µM and 3.13 µM | 13.1 | 8.66 µM and 2.66 µM | 9.54 µM | 3.54 | 13.1 µM | – | –
2 | CCCNc1nc(N(C)O)nc(N(C)O)n1 | 3.46 | > 100 | 1.6 µM | 6.61 µM | 6.09 | > 100 | 1.8 | > 100 | 0.194 µM | > 28 | 3.09 µM | > 100 | 0.689 µM | 4.46 µM | 2.53 | > 43.4 µM | 2.04 | > 100
3 | N#Cc1ccc(Oc2nccc(-c3c(-c4ccc(F)cc4)ncn3C3CCNCC3)n2)cc1 | > 25 | > 25 | 14.1 µM | > 25 µM | > 25 | > 25 | > 16.3 | > 25 | 8.01 µM | 20.8 | 18.2 µM | > 25 | 12.1 µM | > 25 µM | > 25 | > 25 µM | > 25 | > 25
4 | COc1ccc(CN2c3ccccc3Sc3ccccc32)cc1F | 0.559 | > 100 | 0.446 µM | > 100 µM | > 30.4 | > 100 | 0.675 | > 100 | 0.438 µM | > 100 | 0.471 µM | > 100 | 0.483 µM | > 100 µM | 0.615 | > 100 µM | 0.78 | > 100
5 | CC1=C(N2CC2)C(=O)C(CO)=C(N2CC2)C1=O | 0.186 | 1.81 | 0.0399 µM | 0.162 µM and 0.312 µM | 0.194 | 0.74 | – | – | – | 5.88 | 0.0356 µM | 0.337 | 0.00102 µM | 0.0147 µM and 0.0824 µM | 0.00201 | 0.0199 µM and 0.133 µM | – | 0.99
6 | COC1=C(OC)C(=O)C(/C=C(\C)C(=O)O)=C(C)C1=O | > 100 | > 100 | > 100 µM | > 100 µM | > 100 | > 100 | > 100 | > 100 | > 100 µM | > 100 | > 100 µM | > 100 | > 100 µM | > 100 µM | > 100 | > 100 µM | > 100 | > 100
7 | COc1cc(/C=C/C(=O)C(=Cc2ccc(F)c(F)c2)C(=O)/C=C/c2ccc(O)c(OC)c2)ccc1O | 3.45 | 12.5 | 2.18 µM | 5.3 µM | 3.25 | 14.3 | 3.34 | 16.9 | 2.75 µM | > 100 | 1.64 µM | 3.19 | 2.44 µM | 8.29 µM | 2.32 | 5.5 µM | 4.61 | 18.3
8 | CC1C2Cc3ccc(O)cc3C1(C)CCN2C (configuration not stated) | – | > 100 | – | > 100 µM | – | > 100 | – | > 100 | – | > 100 | – | > 100 | – | > 100 µM | – | > 100 µM | – | > 100
9 | O=C(N[C@H](c1ccc(Cl)c(Cl)c1)C1CNC1)c1ccc2cnccc2c1 | 3.26 | 13.1 | 11.1 µM | 23.2 µM | 2.94 | 16.7 | 3.29 | 16.5 | 1.41 µM | 5.67 | 2.34 µM | 11.9 | 3.9 µM | 14.1 µM | 1.78 | 11.5 µM | 3.15 | 16.4
10 | COc1ccc(Nc2c3ccccc3nc3c2c2ccccc2n3C)cc1 | – | – | 14 µM | 37.4 µM | > 100 | > 100 | 17.8 | > 100 | 1.88 µM | 5.36 | 6.61 µM | 53.3 | 3.77 µM | 24.7 µM | 40.6 | > 100 µM | 7.91 | 60.3
11 | COc1ccc2c(c1)C(=O)c1c-2n(CCCN=[N+]=[N-])c(=O)c2ccccc12 | 20.3 | 69.5 | 14.6 µM | > 100 µM | > 100 | > 100 | 52.2 | > 100 | 4.38 µM | > 100 | > 100 µM | > 100 | 51.3 µM | > 100 µM | 27.9 | > 100 µM | 63 | > 100
12 | CC(C)c1cc(C(C)C)c(S(=O)(=O)NN)c(C(C)C)c1 | – | – | – | > 100 µM | – | > 100 | – | > 100 | – | – | – | > 100 | – | > 100 µM | – | > 100 µM | – | > 100
13 | CCN1CCN(CCOc2ccc(CNc3ccc4nc(CCC5CCCCC5)[nH]c4c3)cc2)CC1 | 2.28 | 5.16 | 1.73 µM | 3.17 µM | 2.33 | 7.18 | 2.61 | 8.13 | 1.87 µM | 6.09 | 2.96 µM | 9.82 | 1.43 µM | 3.79 µM | 1.57 | 3.39 µM | 2.25 | 9.15
14 | Clc1ccc(-c2nc3c(-c4ccc(Cl)cc4)nc(-c4ccccc4)cn3c2-c2ccc(Cl)cc2)cc1 | 24.2 | > 50 | > 50 µM | > 50 µM | > 50 | > 50 | > 50 | > 50 | > 50 µM | > 50 | > 50 µM | > 50 | > 50 µM | > 50 µM | 46.5 | > 50 µM | > 50 | > 50
15 | C=C1CC[C@@H]2C(C)(C)[C@@H](O)CC[C@@]2(C)[C@@H]1COc1ccc2ccc(=O)oc2c1 | – | – | 5.68 µM | 18 µM | 18.7 | 39.9 | 8.46 | 66.8 | 7.22 µM | 35.6 | 12.3 µM | 29.1 | 8.75 µM | 65.7 µM | 14.8 | 30.6 µM | 10.6 | 25.6
16 | Cc1cccc(CN(C)c2ccc(CO)c(Cl)c2)c1 | 12.6 | 46.8 | 9.47 µM | 22.3 µM | 0.881 | 4.87 | 4.58 | 34.4 | 22.2 µM | > 75.5 | 22.5 µM | 72.4 | 14.4 µM | > 69.3 µM | 13.2 | 34.1 µM | 22.6 | 90.1
17 | CCCCCCN(CCCCCC)CCCNc1nccc2ccccc12 | 2.09 | 5.03 | 1.7 µM | 3.13 µM | 1.63 | 4.3 | 2.64 | 7.98 | 2.56 µM | 7.71 | 1.81 µM | 3.56 | 1.73 µM | 4.11 µM | 1.81 | 3.98 µM | 2.65 | 11.8
18 | Cc1ccc(-n2c3c(c4c(CN5CCCCC5)c(O)ccc42)CCc2ccccc2C3=O)cc1 | > 100 | > 100 | > 100 µM | > 100 µM | > 100 | > 100 | > 100 | > 100 | > 100 µM | > 100 | > 100 µM | > 100 | > 100 µM | > 100 µM | 33.5 | > 100 µM | > 100 | > 100
19 | O=C1NC(=NCC(CO)c2ccccc2)S/C1=C\c1ccc2ncccc2c1 (configuration not stated) | > 25 | > 25 | > 25 µM | > 25 µM | > 25 | > 25 | 16.2 | > 25 | > 25 µM | > 25 | 14.7 µM | > 25 | 14.6 µM | > 25 µM | > 25 | > 25 µM | – | –
20 | CCCc1cc(=O)oc2c(C(=O)CC(C)C)c(O)c(CC=C(C)C)c(O)c12 | 13.5 | 41.2 | 2.53 µM | 11 µM | – | – | 11.4 | > 50 | 11.7 µM | > 50 | 11 µM | > 50 | 2.86 µM | 22.1 µM | 10.5 | 46.2 µM | 9.22 | > 50
21 | O=C(CCCn1c2c(sc3ncccc32)c(=O)n2nnc(-c3ccccc3)c12)NCCc1cnc[nH]1 | 14.3 | 27.7 | 16.1 µM | > 100 µM | 11.6 | 32.7 | 8.74 | 34.7 | 2.22 µM | 24.2 | 1.89 µM | 24 | 5.15 µM | 35.7 µM | 12.6 | 25.7 µM | 15.2 | 44.5
22 | COC(=O)/C(C#N)=C\N1CCN(C(=O)c2ccco2)C1=S | 28.2 | > 100 | 14.8 µM | 31 µM | – | – | 14.6 | 37.7 | 7.41 µM | > 100 | 3.3 µM | 12.6 | 3.3 µM | 62.4 µM | 6.25 | 21.7 µM | 10.2 | 28.5
23 | c1cncc(CNc2ccccc2-c2nnc(Nc3ccc4c(c3)OCO4)o2)c1 | 0.0914 | 7.81 | 0.0449 µM | > 100 µM | 0.347 | > 100 | 0.0686 | > 100 | 0.194 µM | > 100 | 0.0505 µM | > 100 | 0.16 µM | > 100 µM | 0.14 | > 90.4 µM | 0.328 | > 100
24 | Nc1nc(-c2ccccc2)c(-c2ccccc2)c(-c2nc(N)nc(-c3ccccc3)c2-c2ccccc2)n1 | – | > 100 | – | > 100 µM | – | > 100 | – | > 100 | – | > 100 | – | > 100 | – | – | – | > 100 µM | – | > 100
25 | Cn1cc(-c2csc(-c3c[nH]c4ncccc34)n2)c2cc(Br)cnc21 | 3.25 | > 100 | – | – | > 100 | > 100 | – | – | > 100 µM | > 100 | 5.7 µM | > 100 | > 100 µM | > 100 µM | 9.65 | > 100 µM | 1.27 | > 100
26 | Fc1ccc(-c2nc(-c3nc4ccc(Cl)cc4[nH]3)cc3c2[nH]c2ccccc23)cc1 | 7.43 | 24.6 | 3.52 µM | 15.4 µM | 6.13 | 22.1 | 2.89 | 12.3 | 2.48 µM | 8.37 | 3.46 µM | 13.7 | 1.84 µM | 6.58 µM | 5.71 | 18.7 µM | – | –
27 | O=C1C2=C(C(=O)c3c(O)ccc(O)c31)N(c1ccc(N3CCOCC3)nc1)Cc1ccccc1O2 | 2.89 | 11.8 | 1.36 µM | 2.76 µM | 0.777 | 2.3 | 2.88 | 9.11 | 0.0872 µM | – | 1.55 µM | 3.92 | 0.265 µM | 0.945 µM | 0.206 | 0.45 µM | 0.27 | 1.67
28 | C/C(=N\NC(=O)CC(=O)Nc1ccc(C)cc1)c1cc2ccccc2oc1=O | – | > 100 | – | > 100 µM | – | – | – | > 100 | – | > 100 | – | > 100 | – | > 100 µM | – | > 100 µM | – | > 100
29 | C=CCN1C(=O)/C(=c2\sc3n(c2=O)C2C(NN=3)N(CC)C(=O)N2CC)c2ccccc21 (configuration not stated) | 1.45 | > 23.9 | 0.421 µM | 2.05 µM | 1.55 | > 100 | 1.21 | > 100 | 1.71 µM | > 100 | 0.439 µM | > 100 | 0.657 µM | > 100 µM | 0.708 | 14.9 µM | 1.39 | > 100
30 | O=C1Cc2cc(CCn3ccnc3)c(Cl)cc2N1 | 18.1 | > 100 | 8.12 µM | > 100 µM | 44.8 | > 100 | 7.63 | > 100 | 56.7 µM | > 100 | 3.58 µM | 98.4 | 46.2 µM | > 100 µM | > 100 | > 100 µM | 0.613 | > 100

— PubChem BioAssay (NCI)
